These results are taken from ChEMBL document CHEMBL3785004, “New antimalarial norterpene cyclic peroxides from Xisha Islands sponge Diacarnus megaspinorhabdosa” (Bioorg Med Chem Lett, 2016).

Structures are written as SMILES.

In data set [1] the test system is Plasmodium falciparum. Description: Antimalarial activity against chloroquine resistant Plasmodium falciparum W2 after 72 hrs by LDH assay. In kind it is functional, organism-based. The conditions noted are these: W2, 72 h.
A short description of data set [2]: Selectivity index, ratio of IC50 for Vero cells to IC50 for chloroquine resistant Plasmodium falciparum W2. In kind it is toxicity, cell-based. The conditions noted are these: monkey, read-out: Ratio IC50.
Data set [3] deals with Plasmodium falciparum. Description: Antimalarial activity against chloroquine sensitive Plasmodium falciparum D6 after 72 hrs by LDH assay. In kind it is functional, organism-based. The conditions noted are these: D6, 72 h.
Data set [4] in a line: Selectivity index, ratio of IC50 for Vero cells to IC50 for chloroquine sensitive Plasmodium falciparum D6. In kind it is toxicity, cell-based. The conditions noted are these: monkey, read-out: Ratio IC50.

As to `C=C1CCCC(C)(C)C1(O)CC/C(C)=C/CC[C@@]1(C)CC[C@H]([C@H](C)C(=O)O)OO1` (some centres undefined), the half-maximal inhibitory concentration (IC50) came to 4.9 µM in data set [1] and 7.3 µM in data set [3]. The selectivity ratio was 2.4 in data set [2] and 1.6 in data set [4].
On the same counts, the results for `CC1=C(CC/C(C)=C/CC[C@@]2(C)CC[C@H]([C@H](C)C(=O)O)OO2)C(C)(C)CCC1` are 5.6 µM, 8.6 µM, 2.2 and 1.4.
As to `COC(=O)[C@H](C)[C@H]1CC[C@@](C)(CCC2=C(C)C(=O)CCC2(C)C)OO1` [DIACARPEROXIDE A], the half-maximal inhibitory concentration (IC50) in data set [1] turned out to be 1.9 µM; in data set [3] it was 2 µM. The selectivity ratio in data set [2] turned out to be 6.8; in data set [4], 6.5.
On the same counts, the results for `C=C1CCCC(C)(C)C1(O)CC/C(C)=C/CC[C@@]1(C)CC[C@H]([C@H](C)C(=O)OC)OO1` (some centres undefined) are 1.6 µM, 2.2 µM, 7 and 5.1.
In the case of `CC1=C(CC[C@]2(C)CC[C@H]([C@@H](C)C(=O)O)OO2)C(C)(C)CCC1`, the IC50 in data set [1] turned out to be 5.5 µM; in data set [3], 8.1 µM. In addition, the selectivity ratio in data set [2] was found to be 2.6; in data set [4], 1.7.
In data set [1], `C[C@@H]1CC[C@H]2[C@@H](C)C(=O)O[C@@H]3O[C@@]4(C)CC[C@@H]1[C@]32OO4` [ARTEMISININ] registered an IC50 of 0.14 µM.
Take `COC(=O)[C@@H](C)[C@H]1CC[C@](C)(CC/C=C(\C)CCC2(O)C(C)CCCC2(C)C)OO1` (some centres undefined): the 50% inhibitory concentration (IC50) in data set [1] worked out at 4.2 µM; in data set [3], 5.6 µM. Also, the figures for the selectivity ratio in data set [2] and in data set [4] were 2.6 and 2, respectively.
On the same counts, the results for `COC(=O)[C@@H](C)[C@H]1CC[C@](C)(CC/C=C(\C)CCC2(C)C(C)CCCC2(C)O)OO1` (some centres undefined) are 3 µM, 6.6 µM, 3.7 and 1.7.

For orientation: IC50 means the concentration that inhibits the measured activity by half. Low values mean inhibition by little substance, high ones a need for much substance.
